According to patent publication US10899753B2, “Inhibiting agents for Bruton's tyrosine kinase” (BIOGEN MA INC., priority 2018, dated 2021):

Tests used:
BTK [1] = biological target: T1, BTK (Homo sapiens (Human), UniProt Q06187); test: In Vitro BTK Kinase Assay: BTK-POLYGAT-LS ASSAY; format: biochemical; conditions: fluorescein-labeled polyGAT peptide 100 nM, BTK enzyme 0.25 nM, 30 minutes, TRF
In short: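 ATP […] and polyGAT peptide (100 nM), final concentrations, in Tris-HCl pH 7.5 kinase buffer with MgCl2, DTT, Triton X-100 and casein. Reaction run 30 min, stopped with EDTA, then 45 min at room temperature.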

BTK [2] = biological target: T1, BTK; test: In Vitro PD Assay in Human Whole Blood (pBTK assay); format: cell-based; conditions: human heparinized whole blood, 37° C. for 30 min, total BTK capture and phosphotyrosine detection (ECL)
In short: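 Heparinized human venous whole blood spiked with serially diluted compound (0.1% DMSO final) and incubated 30 min at 37° C. Lysed with protease/phosphatase inhibitors (high control +PPi, low control −PPi lacking phosphatase inhibitors); total BTK captured and phosphotyrosine detected.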

T1 sequence (Q06187 whole entry): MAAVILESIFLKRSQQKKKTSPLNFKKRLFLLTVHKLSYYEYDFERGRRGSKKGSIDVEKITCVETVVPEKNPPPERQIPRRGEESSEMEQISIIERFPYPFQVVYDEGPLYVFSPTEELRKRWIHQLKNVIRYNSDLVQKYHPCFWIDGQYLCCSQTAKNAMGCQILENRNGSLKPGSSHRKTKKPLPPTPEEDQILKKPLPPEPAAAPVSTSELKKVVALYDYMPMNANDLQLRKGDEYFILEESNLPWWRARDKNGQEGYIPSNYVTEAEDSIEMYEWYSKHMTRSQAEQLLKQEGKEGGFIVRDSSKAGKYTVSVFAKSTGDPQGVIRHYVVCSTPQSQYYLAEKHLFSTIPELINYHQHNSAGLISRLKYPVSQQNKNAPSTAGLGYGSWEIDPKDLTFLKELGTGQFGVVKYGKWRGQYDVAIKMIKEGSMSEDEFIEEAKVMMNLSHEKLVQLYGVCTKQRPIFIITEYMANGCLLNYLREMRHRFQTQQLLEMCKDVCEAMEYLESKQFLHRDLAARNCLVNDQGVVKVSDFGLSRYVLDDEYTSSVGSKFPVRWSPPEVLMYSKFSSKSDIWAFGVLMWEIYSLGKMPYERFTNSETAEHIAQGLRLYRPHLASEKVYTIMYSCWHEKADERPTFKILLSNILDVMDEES

Row | Structure (SMILES) | IC50 (BTK [1]) [nM] | IC50 (BTK [2]) [nM]
1 | Cn1ccc(Nc2ncnc(-c3ccc4c(c3)CN(C3COC3)CC[C@H]4NC(=O)c3coc(C(C)(C)C)n3)n2)n1 [Compound 94, (R)-2-(tert-butyl)-N-(8-(4-((1-methyl-1H-pyrazol-3-yl)amino)-1,3,5-triazin-2-yl)-2-(oxetan-3-yl)-2,3,4,5-tetrahydro-1H-benzo[c]azepin-5-yl)oxazole-4-carboxamide] | 1 to 10 | 100 to 500
2 | Cn1ccc(Nc2ncnc(-c3ccc4c(c3)CN(CC(F)(F)F)CC[C@H]4NC(=O)c3coc(C(C)(C)C)n3)n2)n1 [Compound 95, (R)-2-(tert-butyl)-N-(8-(4-((1-methyl-1H-pyrazol-3-yl)amino)-1,3,5-triazin-2-yl)-2-(2,2,2-trifluoroethyl)-2,3,4,5-tetrahydro-1H-benzo[c]azepin-5-yl)oxazole-4-carboxamide] | < 1 | 500 to 10000
3 | Cn1ccc(Nc2ncnc(-c3ccc4c(c3)CN(CC(F)(F)F)CC[C@H]4NC(=O)c3nc(C(C)(C)C)co3)n2)n1 [Compound 96, (R)-4-(tert-butyl)-N-(8-(4-((1-methyl-1H-pyrazol-3-yl)amino)-1,3,5-triazin-2-yl)-2-(2,2,2-trifluoroethyl)-2,3,4,5-tetrahydro-1H-benzo[c]azepin-5-yl)oxazole-2-carboxamide] | 1 to 10 | 500 to 10000
4 | Cn1ccc(Nc2ncnc(-c3ccc4c(c3)CN(C3COC3)CC[C@H]4NC(=O)c3nc(C(C)(C)C)no3)n2)n1 [Compound 98, (R)-3-(tert-butyl)-N-(8-(4-((1-methyl-1H-pyrazol-3-yl)amino)-1,3,5-triazin-2-yl)-2-(oxetan-3-yl)-2,3,4,5-tetrahydro-1H-benzo[c]azepin-5-yl)-1,2,4-oxadiazole-5-carboxamide] | < 1 | 100 to 500
5 | Cc1cc(-c2ncnc(Nc3cnn(C)c3)n2)ccc1CNC(=O)c1cnc(C(C)(C)C)o1 [Compound 99, 2-(tert-butyl)-N-(2-methyl-4-(4-((1-methyl-1H-pyrazol-4-yl)amino)-1,3,5-triazin-2-yl)benzyl)oxazole-5-carboxamide] | < 1 | 500 to 10000
6 | Cc1c(CNC(=O)c2coc(C(C)(C)C)n2)ccc(-c2ncnc(Nc3ccn(C)n3)n2)c1F [Compound 100, 2-(tert-butyl)-N-(3-fluoro-2-methyl-4-(4-((1-methyl-1H-pyrazol-3-yl)amino)-1,3,5-triazin-2-yl)benzyl)oxazole-4-carboxamide] | < 1 | 500 to 10000
7 | C[C@@H](NC(=O)c1noc(C(C)(C)C)n1)c1ccc(-c2ncnc(Nc3ccn(C)n3)n2)c(F)c1Cl [Compound 101, (R)-5-(tert-butyl)-N-(1-(2-chloro-3-fluoro-4-(4-((1-methyl-1H-pyrazol-3-yl)amino)-1,3,5-triazin-2-yl)phenyl)ethyl)-1,2,4-oxadiazole-3-carboxamide] | < 1 | 500 to 10000
8 | C[C@@H](NC(=O)c1nc(C(C)(C)C)no1)c1ccc(-c2ncnc(Nc3ccn(C)n3)n2)c(F)c1Cl [Compound 102, (R)-3-(tert-butyl)-N-(1-(2-chloro-3-fluoro-4-(4-((1-methyl-1H-pyrazol-3-yl)amino)-1,3,5-triazin-2-yl)phenyl)ethyl)-1,2,4-oxadiazole-5-carboxamide] | < 1 | 500 to 10000
9 | Cn1cc(Nc2ncnc(-c3ccc(CNC(=O)c4coc(C(C)(C)C)n4)c(Cl)c3F)n2)cn1 [Compound 103, 2-(tert-butyl)-N-(2-chloro-3-fluoro-4-(4-((1-methyl-1H-pyrazol-4-yl)amino)-1,3,5-triazin-2-yl)benzyl)oxazole-4-carboxamide] | < 1 | 100 to 500
10 | Cn1ccc(Nc2ncnc(-c3ccc(CNC(=O)c4noc(C5(C)CC5)n4)c(Cl)c3F)n2)n1 [Compound 104, N-(2-chloro-3-fluoro-4-(4-((1-methyl-1H-pyrazol-3-yl)amino)-1,3,5-triazin-2-yl)benzyl)-5-(1-methylcyclopropyl)-1,2,4-oxadiazole-3-carboxamide] | < 1 | 500 to 10000
11 | Cc1c(CNC(=O)c2cn(C(C)(C)C)nn2)ccc(-c2ncnc(Nc3cnn(C)c3)n2)c1F [Compound 105, 1-(tert-butyl)-N-(3-fluoro-2-methyl-4-(4-((1-methyl-1H-pyrazol-4-yl)amino)-1,3,5-triazin-2-yl)benzyl)-1H-1,2,3-triazole-4-carboxamide] | < 1 | 100 to 500
12 | Cc1c(CNC(=O)c2ccn(C(C)(C)C)n2)ccc(-c2ncnc(Nc3cnn(C)c3)n2)c1F [Compound 106, 1-(tert-butyl)-N-(3-fluoro-2-methyl-4-(4-((1-methyl-1H-pyrazol-4-yl)amino)-1,3,5-triazin-2-yl)benzyl)-1H-pyrazole-3-carboxamide] | < 1 | 500 to 10000
13 | Cc1cc(-c2ncnc(Nc3cnn(C)c3)n2)ccc1CNC(=O)c1coc(C(C)(C)C)n1 [Compound 107, 2-(tert-butyl)-N-(2-methyl-4-(4-((1-methyl-1H-pyrazol-4-yl)amino)-1,3,5-triazin-2-yl)benzyl)oxazole-4-carboxamide] | < 1 | 500 to 10000
14 | Cc1cc(-c2ncnc(Nc3cnn(C)c3)n2)ccc1CNC(=O)c1cc(C(C)(C)C)no1 [Compound 108, 3-(tert-butyl)-N-(2-methyl-4-(4-((1-methyl-1H-pyrazol-4-yl)amino)-1,3,5-triazin-2-yl)benzyl)isoxazole-5-carboxamide] | < 1 | 100 to 500
15 | Cc1cc(-c2ncnc(Nc3cnn(C)c3)n2)ccc1CNC(=O)c1cn(C(C)(C)C)nn1 [Compound 109, 1-(tert-butyl)-N-(2-methyl-4-(4-((1-methyl-1H-pyrazol-4-yl)amino)-1,3,5-triazin-2-yl)benzyl)-1H-1,2,3-triazole-4-carboxamide] | 1 to 10 | 100 to 500
16 | Cn1ccc(Nc2ncnc(-c3ccc4c(c3F)CCCC[C@H]4NC(=O)c3noc(C(C)(C)C)n3)n2)n1 [Compound 111, (R)-5-(tert-butyl)-N-(1-fluoro-2-(4-((1-methyl-1H-pyrazol-3-yl)amino)-1,3,5-triazin-2-yl)-6,7,8,9-tetrahydro-5H-benzo[7]annulen-5-yl)-1,2,4-oxadiazole-3-carboxamide] | < 1 | 100 to 500
17 | Cn1ccc(Nc2ncnc(-c3ccc4c(c3F)CCCC[C@H]4NC(=O)c3coc(C(C)(C)C)n3)n2)n1 [Compound 112, (R)-2-(tert-butyl)-N-(1-fluoro-2-(4-((1-methyl-1H-pyrazol-3-yl)amino)-1,3,5-triazin-2-yl)-6,7,8,9-tetrahydro-5H-benzo[7]annulen-5-yl)oxazole-4-carboxamide] | < 1 | 500 to 10000
18 | Cc1c(CNC(=O)c2noc(C3(C)CC3)n2)ccc(-c2ncnc(Nc3ccn(C)n3)n2)c1F [Compound 113, N-(3-fluoro-2-methyl-4-(4-((1-methyl-1H-pyrazol-3-yl)amino)-1,3,5-triazin-2-yl)benzyl)-5-(1-methylcyclopropyl)-1,2,4-oxadiazole-3-carboxamide] | < 1 | 100 to 500
19 | Cc1cc(-c2ncnc(Nc3cnn(C)c3)n2)ccc1CNC(=O)c1nc(C(C)(C)C)co1 [Compound 114, 4-(tert-butyl)-N-(2-methyl-4-(4-((1-methyl-1H-pyrazol-4-yl)amino)-1,3,5-triazin-2-yl)benzyl)oxazole-2-carboxamide] | < 1 | 500 to 10000
